# Where two headings read alike, the source gives them in different places.
# Assays:
# ERRα = molecular target: T1, ERRα (Homo sapiens, UniProt P11474); assay: ThermoFluor thermal shift assay, ERRα; format: binding; conditions: for ΔTm, thermal stabilization of ERRα / ΔTm at 100 µM: 100 μM test compound, 0.1 mg/mL protein, 25 mM HEPES pH 8.0, 25 μM ANS, 2% DMSO, Tm free protein 54.4 °C; for ΔTm at 100 µM: read-out: ΔTm, thermal stabilization of ERRα
# T1 sequence (P11474 193-421 limits assumed): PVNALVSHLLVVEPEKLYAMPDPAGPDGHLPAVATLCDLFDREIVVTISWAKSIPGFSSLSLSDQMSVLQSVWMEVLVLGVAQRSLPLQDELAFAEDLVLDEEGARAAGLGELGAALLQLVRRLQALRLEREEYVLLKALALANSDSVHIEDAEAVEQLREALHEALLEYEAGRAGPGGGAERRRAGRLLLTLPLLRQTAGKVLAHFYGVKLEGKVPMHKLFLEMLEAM
# [1] = molecular target: T2, ligand binding domain of ERRγ (Homo sapiens, UniProt P62508); assay: ThermoFluor thermal shift assay, ERRγ ligand binding domain; conditions: for ΔTm, thermal stabilization of ERRγ / ΔTm at 100 µM: 100 μM test compound, 0.1 mg/mL protein, 25 mM HEPES pH 8.0, Tm free protein 49.6 °C; for Kd: read-out: Estimated dissociation constant, ERRγ; for ΔTm at 100 µM: read-out: ΔTm, thermal stabilization of ERRγ
# T2 construct: 6His; made in house; host or cells: E. coli BL21(DE3)
# T2 sequence (P62508 229-458): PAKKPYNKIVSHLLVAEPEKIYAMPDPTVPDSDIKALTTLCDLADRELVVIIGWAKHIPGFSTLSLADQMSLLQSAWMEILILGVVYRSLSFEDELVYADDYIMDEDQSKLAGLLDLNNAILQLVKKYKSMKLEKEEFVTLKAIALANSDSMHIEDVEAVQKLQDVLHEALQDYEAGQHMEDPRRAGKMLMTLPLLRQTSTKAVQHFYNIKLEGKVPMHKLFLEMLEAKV
# Procedure: The vector was in E. coli BL21(DE3) and cultured in Minimal media (M9) at 37° C. to an OD595 0.6-0.8, followed by induction at 15° C. with 0.4 mM IPTG for 20 hours. The next day, the culture was harvested and lysed in buffer A (Buffer A: 20 mM Tris-HCl, pH 7.5, 0.4 M NaCl and 5 mM Imidazole) using an Emulsiflex-C5 french press (Avestin). Lysates were spun at 40,000×g for 45 minutes to remove insoluble material. The clarified lysate was applied on a Ni-NTA column and eluted with a linear gradient of imidazole. The protein was further purified by applying the eluent on a Superdex 200 HR 10/30 column (Amersham Pharmacia Biotech) equilibrated with Buffer B (Buffer B: 20 mM Tris-HCl pH 7.5, 0.2M NaCl, 1 mM EDTA and 1 mM DTT). […] Fractions were pulled and concentrated to 4 mg/ml and frozen in liquid nitrogen and stored at −80° C.
# The ligand binding domain of ERRγ was screened against a library of known estrogen activators and a generic drug library using ThermoFluor®. ThermoFluor® is a miniaturized thermal shift assay, that has been developed for HTS applications; as a secondary assay for confirmation and characterization of hits; and as a functional assay to characterize orphan proteins. ThermoFluor® exploits the well-described phenomenon of ligand induced stabilization of macromolecules. Ligand binding energy adds directly to the ground state energy of a macromolecule and results in increased thermal stability. The degree of stabilization is proportional to the binding affinity of the ligand for the macromolecule.
# Assay plates were prepared by dispensing 2 μL of a protein-dye solution and 2 μL of the test compound in a 384-well plate. […] Finally 1 μL of mineral oil was dispensed on top to prevent evaporation during the high throughput screen (HTS). ThermoFluor® is an HTS assay that measures protein unfolding based on fluorescence detection of the denatured form of the protein. The reporter for the protein unfolding event is the environmentally sensitive dye ANS that is incorporated in the screening buffer. During a typical experiment the 384-well plate is heated at a ramping rate of 1° C./min and the thermal unfolding of the protein is monitored at 1° C. intervals by measuring fluorescence changes detected through a CCD camera. Captured images are integrated and a melting curve is generated that relates fluorescence to fraction of unfolded protein as a function of temperature. […] Hits were identified from the screen by measuring an increase in the melting temperature of the protein.
# In order to estimate binding affinities, it was taken into account that the oligomeric state of ERRγ which is a dimer (N2), and that of a single ligand (Lf) can interact per monomer subunit with equal affinity. The melting curve for such a system is described by the following three equilibria:
# To compare dissociation constants at a common reference temperature, Tref, the following equation was used: […]
# In the thermodynamic treatment of the data the following assumptions were made: i) the small ligand interacts only with the folded state of the protein, ii) the reactions are reversible; iii) the unfolding protein reaction is a two-state process and iv) ideal dilute solutions are being used (specific activity for protein and ligands is equal to 1).
# ERRβ = molecular target: T3, ERRβ (Homo sapiens, UniProt O95718); assay: ThermoFluor thermal shift assay, ERRβ; format: binding; conditions: for ΔTm, thermal stabilization of ERRβ / ΔTm at 100 µM: 100 μM test compound, 0.1 mg/mL protein, 25 mM HEPES pH 8.0, Tm free protein 47.5 °C; for Kd: read-out: Estimated dissociation constant, ERRβ; for ΔTm at 100 µM: read-out: ΔTm, thermal stabilization of ERRβ
# T3 sequence (O95718 208-432 limits assumed): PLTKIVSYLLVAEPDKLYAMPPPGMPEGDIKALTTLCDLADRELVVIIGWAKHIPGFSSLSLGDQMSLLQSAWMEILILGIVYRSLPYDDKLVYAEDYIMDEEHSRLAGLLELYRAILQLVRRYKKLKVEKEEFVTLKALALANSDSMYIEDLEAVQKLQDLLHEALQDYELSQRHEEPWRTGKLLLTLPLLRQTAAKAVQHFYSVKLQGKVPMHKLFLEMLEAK
# ERα = molecular target: T4, ERα (Homo sapiens, UniProt P03372); assay: ThermoFluor thermal shift assay, ERα; format: binding
# T4 sequence (P03372 1-595): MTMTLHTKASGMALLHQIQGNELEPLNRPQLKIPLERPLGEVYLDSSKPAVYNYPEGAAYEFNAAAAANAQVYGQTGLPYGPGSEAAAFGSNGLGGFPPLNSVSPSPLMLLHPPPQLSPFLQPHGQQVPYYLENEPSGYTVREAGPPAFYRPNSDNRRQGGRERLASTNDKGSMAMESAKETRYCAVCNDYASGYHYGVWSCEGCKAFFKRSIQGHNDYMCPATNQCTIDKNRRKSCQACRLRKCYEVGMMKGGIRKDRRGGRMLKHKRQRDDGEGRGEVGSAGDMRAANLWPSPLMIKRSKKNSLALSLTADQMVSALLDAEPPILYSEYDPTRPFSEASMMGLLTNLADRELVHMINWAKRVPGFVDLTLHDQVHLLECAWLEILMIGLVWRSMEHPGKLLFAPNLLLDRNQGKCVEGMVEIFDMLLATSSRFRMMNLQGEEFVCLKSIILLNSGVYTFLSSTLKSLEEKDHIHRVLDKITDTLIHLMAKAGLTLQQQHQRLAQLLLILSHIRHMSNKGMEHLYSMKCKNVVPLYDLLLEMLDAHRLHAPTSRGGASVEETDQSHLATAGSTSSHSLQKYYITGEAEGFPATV
# ERβ = ERβ (Homo sapiens, UniProt Q92731); assay: ThermoFluor thermal shift assay, ERβ; format: binding; conditions: for Kd: calculated at reference temperature 25 °C from ΔTm of Table II, ΔHu 122 kcal/mol, read-out: Estimated dissociation constant, ERγ
# [2] = 100 μM test compound, 0.1 mg/mL protein, 25 mM HEPES pH 8.0, Tm free protein 39.1 °C
# [3] = calculated at reference temperature 25 °C from ΔTm of Table II, ΔHu 112 kcal/mol, read-out: Estimated dissociation constant, ERα
# [4] = 100 μM test compound, 0.1 mg/mL protein, 25 mM HEPES pH 8.0, Tm free protein 41.1 °C
# [5] = 100 μM test compound, 0.1 mg/mL protein, 25 mM HEPES pH 8.0, Tm free protein 41.1 °C, read-out: ΔTm, thermal stabilization of ERβ
# [6] = 100 μM test compound, 0.1 mg/mL protein, 25 mM HEPES pH 8.0, Tm free protein 39.1 °C, read-out: ΔTm, thermal stabilization of ERα
# Sequence of ERβ (Q92731 whole entry, species assumed): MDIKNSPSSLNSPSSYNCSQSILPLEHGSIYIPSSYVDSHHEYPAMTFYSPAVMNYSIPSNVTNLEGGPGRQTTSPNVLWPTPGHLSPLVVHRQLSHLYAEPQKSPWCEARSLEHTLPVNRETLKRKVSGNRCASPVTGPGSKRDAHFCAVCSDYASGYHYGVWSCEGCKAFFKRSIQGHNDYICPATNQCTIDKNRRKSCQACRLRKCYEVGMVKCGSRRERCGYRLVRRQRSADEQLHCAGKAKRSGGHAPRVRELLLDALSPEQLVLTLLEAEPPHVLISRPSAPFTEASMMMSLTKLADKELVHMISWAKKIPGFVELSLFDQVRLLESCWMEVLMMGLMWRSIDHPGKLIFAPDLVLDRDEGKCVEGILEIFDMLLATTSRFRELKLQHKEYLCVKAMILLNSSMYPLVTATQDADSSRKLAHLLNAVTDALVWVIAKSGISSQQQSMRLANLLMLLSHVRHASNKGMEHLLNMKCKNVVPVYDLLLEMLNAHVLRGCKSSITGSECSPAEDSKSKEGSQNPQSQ
Compound,"ΔTm, thermal stabilization of ERRα (ERRα)","ΔTm, thermal stabilization of ERRγ [1]","ΔTm, thermal stabilization of ERRβ (ERRβ)",Kd (ERβ),ΔTm at 100 µM (ERRα),ΔTm at 100 µM [1],ΔTm at 100 µM (ERRβ),ΔTm at 100 µM (ERβ; [5]),other results
4-bromocresol,0.1 °C,4.3 °C,0.5 °C,,,,,,"Kd ([1]; calculated at reference temperature 25 °C from ΔTm of Table II, ΔHu 165 kcal/mol): 633 nM; Kd (ERRβ; calculated at reference temperature 25 °C from ΔTm of Table II, ΔHu 155 kcal/mol): 17200 nM"
COc1cc2c(cc1O)CC[C@@H]1[C@@H]2CC[C@]2(C)[C@@H](O)CC[C@@H]12 [2-methoxy-estradiol],0.1 °C,0.0 °C,−0.1 °C,2310 nM,,,,,"ΔTm, thermal stabilization of ERα (ERα; [2]): 3.5 °C; Kd (ERα; [3]): 2660 nM; ΔTm, thermal stabilization of ERβ (ERβ; [4]): 2.9 °C"
C[C@]12CC[C@H]3[C@@H](CCC4=C[C@H](O)CC[C@@H]43)[C@@H]1CC[C@@H]2O [4-estrene-3-α-17-β-diol],,,,157 nM,0 °C,-0.1 °C,-0.1 °C,7.7 °C,"Kd (ERα): 1270 nM; ΔTm at 100 µM (ERα; pH 8, read-out: ΔTm, thermal stabilization of ERα): 4.9 °C"
CCc1cc(O)ccc1Cl [4chloro-3ethyl-phenol],,,,,0.2 °C,4.1 °C,0.4 °C,,Kd [1]: 722 nM; Kd (ERRβ): 18000 nM
C[C@]12CC[C@@H]3c4ccc(O)cc4CC[C@H]3[C@@H]1CC[C@H]2O [17-α-estradiol],,1.3 °C,0.0 °C,,,,,,
C[C@]12CC[C@@H]3c4ccc(O)cc4CC[C@H]3[C@@H]1CC[C@@H]2O [17-β-estradiol],,0.6 °C,−0.1 °C,,,,,,
N#CC(Cc1ccc(O)cc1)c1ccc(O)cc1 (stereo not drawn) [DPN],−0.2 °C,0.3 °C,0.2 °C,,,,,,
O=c1c(-c2ccc(O)cc2)coc2cc(O)ccc12 [Daidzein],,,,,0 °C,-0.1 °C,0.3 °C,,"Interaction with / stabilization of ERRα, in words (ERRα; ThermoFluor): did not interact; Interaction with / stabilization of ERRγ, in words ([1]; ThermoFluor): did not interact; Interaction with / stabilization of ERRβ, in words (ERRβ; ThermoFluor): did not interact; ΔTm at 100 µM (ERα; [6]): 4.1 °C; ΔTm at 100 µM (ERβ; pH 8, read-out: ΔTm, thermal stabilization of ERβ): 8.9 °C"
C[C@]12CC[C@@H]3c4ccc(O)cc4C[C@@H](CCCCCCCCC[S+]([O-])CCCC(F)(F)C(F)(F)F)[C@H]3[C@@H]1CC[C@@H]2O (stereo partly drawn) [ICI-182780],,,,,0 °C,0 °C,0 °C,16.7 °C,ΔTm at 100 µM (ERα; [6]): 13.9 °C
CCCc1c(-c2ccc(O)cc2)nn(-c2ccc(O)cc2)c1-c1ccc(O)cc1 [PPT],−2.3 °C,−1.8 °C,−3.5 °C,58.3 nM,,,,,"ΔTm, thermal stabilization of ERα (ERα; [2]): 11.7 °C; Kd (ERα; [3]): 38.7 nM; ΔTm, thermal stabilization of ERβ (ERβ; [4]): 9.5 °C"
CCN(CC)CCOc1ccc(C(=C(Cl)c2ccccc2)c2ccccc2)cc1 [clomiphene],,,,52.1 nM,,,,9.7 °C,
O=C(c1ccc(OCCN2CCCCC2)cc1)c1c(-c2ccc(O)cc2)sc2cc(O)ccc12 [raloxifene],,,,,,,,11.9 °C,
Oc1ccc(/C=C/c2cc(O)cc(O)c2)cc1 [resvesterol],0.0 °C,0.4 °C,0.2 °C,,,,,,

# — patent publication US7655756B2 (Johnson & Johnson Pharmaceutical Research & Development, LLC, priority 2005, dated 2010)
